Some test systems named below: OVCAR-8; NCI-H23; K562; HOP-92; A549; SK-MEL-2; M19-MEL; 786-0; COLO 205; SW-620; BT-549; MDA-N; DU-145; OVCAR-5; EKVX; KM-20L2; SN12C; HOP-62; LOX IMVI; RPMI-8226.
What all share (assay): NCI tumour cell line growth inhibition, 48 h

Here are results for eight compounds from ChEMBL document CHEMBL1201862, “PubChem BioAssay data set” (2004).

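A five-concentration, 48-hour dose response in 96-well plates underlies each endpoint, interpolated linearly between surrounding concentrations. Abbreviation: GI50, concentration required for 50% inhibition of growth.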 Activity calls are given as the source filed them. Rule as the data show it: active = GI50 up to about 1.1 µM and inactive = higher.

For the compound `CC[C@@]1(O)C(=O)OCc2c1c(Cl)c1n(c2=O)Cc2cc3ccccc3nc2-1`, the GI50 in the assay on OVCAR-8 is 3.05 µM (inactive); in the assay with NCI-H23, 2.05 µM (inactive); in the assay on K562, 2.1 µM (inactive); in the assay on HOP-92 it was 7.62 µM (inactive); in the assay on A549, 2.06 µM (inactive); with SK-MEL-2 it was 12.3 µM (inactive). Besides, the GI50 is 1.67 µM (inactive) in the assay with M19-MEL; 1.22 µM (inactive) in the assay with 786-0; 5.52 µM (inactive) in the assay with COLO 205; 1.95 µM (inactive) with SW-620; 8.67 µM (inactive) with BT-549; 7.24 µM (inactive) in the assay on MDA-N. For the same compound, the GI50 is 1.92 µM (inactive) in the assay with DU-145; 5.07 µM (inactive) with OVCAR-5; 6.1 µM (inactive) with EKVX; 4.47 µM (inactive) with KM-20L2; 2.7 µM (inactive) in the assay with SN12C; 0.733 µM (active) in the assay with HOP-62. Moreover, the GI50 is 1.16 µM (inactive) in the assay on LOX IMVI and 1.73 µM (inactive) in the assay with RPMI-8226.

With `O=[N+]([O-])c1cccc(S(=O)(=O)N/N=C/c2cc(I)cc([N+](=O)[O-])c2O)c1`, the GI50 is 25.6 µM (inactive) with OVCAR-8; 22 µM (inactive) with NCI-H23; 29.8 µM (inactive) with K562; 16.8 µM (inactive) in the assay on HOP-92; > 100 µM (inactive) in the assay with A549; 19.7 µM (inactive) with SK-MEL-2. Besides, the GI50 in the assay with M19-MEL is 34.8 µM (inactive); with 786-0, 31.8 µM (inactive); with COLO 205, 16.5 µM (inactive); with SW-620, 22 µM (inactive); in the assay with OVCAR-5 it was 40.1 µM (inactive); with EKVX, 29 µM (inactive). The GI50 with KM-20L2 was 43 µM (inactive); with SN12C it was 24.2 µM (inactive); in the assay on HOP-62, 26.7 µM (inactive); with LOX IMVI, 27.9 µM (inactive); in the assay with RPMI-8226, 37 µM (inactive).

With `Nc1nc2c(ncn2CCCC(c2ccccc2)P(=O)(O)O)c(=O)[nH]1` (stereo not given), the GI50 in the assay on OVCAR-8 was > 100 µM (inactive); in the assay with NCI-H23 it was > 100 µM (inactive); in the assay with K562, > 100 µM (inactive); in the assay with HOP-92, 91.8 µM (inactive); in the assay with A549, > 100 µM (inactive); with SK-MEL-2, > 100 µM (inactive). Moreover, the GI50 in the assay on M19-MEL, in the assay with 786-0, in the assay on COLO 205, in the assay on SW-620, in the assay with OVCAR-5 and in the assay on EKVX was > 100 µM (inactive) each time. Also, the GI50 in the assay with KM-20L2, with SN12C, with HOP-62, in the assay on LOX IMVI and with RPMI-8226 was > 100 µM (inactive) each time.

For `C[C@]12CCNC(=O)C=C1CC[C@@H]1C2CC[C@@]2(C)C1CC[C@@H]2OC(=O)COc1ccc(N(CCCl)CCCl)cc1` (stereo not given in full), the GI50 with OVCAR-8 was 4.09 µM (inactive); with NCI-H23, 2.99 µM (inactive); in the assay on K562 it was 2.91 µM (inactive); in the assay with HOP-92, 7.73 µM (inactive); in the assay with A549, 5.37 µM (inactive); in the assay with SK-MEL-2, 18.5 µM (inactive). In addition, the GI50 is 4.91 µM (inactive) with M19-MEL; 0.964 µM (active) in the assay on 786-0; 9.08 µM (inactive) with COLO 205; 2.23 µM (inactive) with SW-620; 17.5 µM (inactive) with BT-549; 13.3 µM (inactive) in the assay on MDA-N. In addition, the GI50 was 4.54 µM (inactive) with DU-145; 12.6 µM (inactive) with OVCAR-5; 16.1 µM (inactive) with EKVX; 14.4 µM (inactive) in the assay with KM-20L2; 4.65 µM (inactive) with SN12C; 2.84 µM (inactive) with HOP-62. The GI50 with LOX IMVI was 3.21 µM (inactive); in the assay with RPMI-8226 it was 4.65 µM (inactive).

With `COc1c(OC2OC(CO)C(O)C(O)C2O)cc2c(c1OC)-c1ccc(OC)c(=O)cc1[C@@H](NC(C)=O)CC2` (stereo not given in full), the GI50 in the assay with OVCAR-8 was > 100 µM (inactive); with NCI-H23 it was > 100 µM (inactive); in the assay on K562 it was 52.1 µM (inactive); in the assay on HOP-92, 45.3 µM (inactive); with A549, > 100 µM (inactive); in the assay with SK-MEL-2, 35.1 µM (inactive). Besides, the GI50 with M19-MEL is 60.1 µM (inactive); in the assay with 786-0 it was > 100 µM (inactive); with COLO 205 it was > 100 µM (inactive); with SW-620, > 81.8 µM (inactive); with OVCAR-5, > 100 µM (inactive); with EKVX it was > 100 µM (inactive). Moreover, the GI50 in the assay on KM-20L2 was > 100 µM (inactive); in the assay with SN12C it was > 91 µM (inactive); in the assay with HOP-62 it was > 100 µM (inactive); in the assay on LOX IMVI, > 100 µM (inactive); in the assay with RPMI-8226, > 82.2 µM (inactive).

Regarding `O=[N+]([O-])c1ccc(C2CC(c3ccccc3Cl)=Nc3ccccc3[S+]2[O-])cc1` (stereo not given), the GI50 with OVCAR-8 was 2.87 µM (inactive); in the assay on NCI-H23, 4.13 µM (inactive); with K562, 1.37 µM (inactive); with HOP-92, 15.3 µM (inactive); with A549, 9.64 µM (inactive); in the assay on SK-MEL-2, 15 µM (inactive). For the same compound, the GI50 in the assay with M19-MEL was 2.77 µM (inactive); with 786-0, 1.8 µM (inactive); in the assay on COLO 205 it was 7.69 µM (inactive); in the assay on SW-620, 1.98 µM (inactive); in the assay on BT-549 it was 13.7 µM (inactive); in the assay with MDA-N, 9.51 µM (inactive). Further, the GI50 in the assay with DU-145 is 15.5 µM (inactive); with OVCAR-5 it was 3.71 µM (inactive); in the assay on EKVX, 15 µM (inactive); with KM-20L2, 2.59 µM (inactive); with SN12C it was 2.26 µM (inactive); in the assay on HOP-62, 7.19 µM (inactive). Moreover, the GI50 is 2.07 µM (inactive) with LOX IMVI and 1.77 µM (inactive) in the assay on RPMI-8226.

On to `C[N+](C)(C)CC(=O)N/N=C(/C=C/c1ccccc1)CC1OC(=O)c2ccccc21` (stereo not given), for which the GI50 is > 100 µM (inactive) in the assay with OVCAR-8; > 10 µM (inactive) in the assay on NCI-H23; > 100 µM (inactive) in the assay with K562; > 10 µM (inactive) in the assay with HOP-92; > 100 µM (inactive) with A549; > 100 µM (inactive) in the assay with SK-MEL-2. Also, the GI50 with M19-MEL is > 100 µM (inactive); with 786-0 it was > 100 µM (inactive); in the assay with COLO 205, > 100 µM (inactive); in the assay with SW-620, > 100 µM (inactive); in the assay with OVCAR-5 it was > 10 µM (inactive); in the assay on EKVX, > 100 µM (inactive). Also, the GI50 was > 100 µM (inactive) with KM-20L2; > 100 µM (inactive) with SN12C; > 100 µM (inactive) in the assay with HOP-62; > 10 µM (inactive) with LOX IMVI; > 100 µM (inactive) in the assay on RPMI-8226.

On to `NC1=NCC(c2ccccn2)C1c1ccc(F)cc1` (stereo not given), for which the GI50 in the assay with OVCAR-8, with NCI-H23, in the assay on K562, with HOP-92, in the assay with A549 and in the assay with SK-MEL-2 was > 100 µM (inactive) throughout. Besides, the GI50 in the assay on M19-MEL, in the assay with 786-0, in the assay with COLO 205, in the assay with SW-620, in the assay on OVCAR-5 and in the assay with EKVX was > 100 µM (inactive) each time. Besides, the GI50 with KM-20L2, with SN12C, in the assay on HOP-62, in the assay with LOX IMVI and in the assay on RPMI-8226 was > 100 µM (inactive) each time.
